Literature values as cited in US8618066B1 (priority 2003, dated 2013).
“Also recorded” adds a separate entry of the source.

System: Gram+ & Gram− bacteria, fungi, virus, mammalian/cancer cells
Conditions: cited from earlier work

Substance	Activity
SEQ ID No. 30: synthetic antifungal peptide, Table 1 (WLRF)	Fungi
Lactoferrin (Lf) peptide 2: antimicrobial peptide, Table 1 (FKCRRWQWRM; lactoferrin (Lf) peptide 2)	Fungi
Histone H2b-3 (HLP-3) (Fragment): source Rainbow trout (PDPAKTAPKKKSKKAVT; Oncorhynchus mykiss; Histone H2B-3(HLP-3)(Fragment))	Fungi
SEQ ID No. 195: synthetic antifungal peptide, Table 1 (WCQQKGQPCW; listed as Fusarium graminearum)	Fungi
Antimicrobial peptide 1: peptide, source Common ice plant (AKCIKNGKGCREDQGPPFCCSGFCYRQVGWARGYCKNR; Antimicrobial peptide 1; listed as Mesembryanthemum crystallinum)	Gram+ & Gram−, Fungi
SEQ ID No. 186: synthetic antifungal peptide, Table 1 (MPSTAASTRVPQTTMNFNGYCVVM; listed as Neurospora crassa)	Fungi
HNP-1 Defensin: peptide, source Human	Gram+ & Gram−, Virus, Fungi
Ib-AMP3: peptide, source Impatiens balsamina (RHRCCAWGPGRKYCKRWC; Ib-antimicrobial peptidic agent3; listed as Impatiens balsamina)	Gram+, Fungi
Dolabellanin B2: peptide, source Sea hare (SHQDCYEALHKCMASHSKPFSCSMKFHMCLQQQ; Dolabellanin B2; listed as Dolabella auricularia)	Gram+ & Gram−, Fungi
SEQ ID No. 179: synthetic antifungal peptide, Table 1 (WHWLSFSKGQPMY; listed as Saccharomyces kluyveri)	Fungi
Indolicidin: peptide, source Bos Taurus (ILPWKWPWWPWRR; listed as Bos taurus)	Gram+ & Gram−, Virus, Fungi
FRLKFHF [SEQ ID No. 197]	Gram+ & Gram−, Fungi
Neutrophil defensin 2 (RMAD-2): peptide, source Rhesus macaque (ACYCRIPACLAGERRYGTCFYMGRVWAFCC; neutrophil defensin 2 (RMAD-2); listed as Macaca mulatta)	Gram+ & Gram−, Fungi
Hepcidin 20: peptide, source Human (ICIFCCGCCHRSKCGMCCKT; Hepcidin 20; listed as Homo sapiens)	Fungi
SEQ ID No. 29: synthetic antifungal peptide, Table 1 (FLRF)	Fungi
SEQ ID No. 42: synthetic antifungal peptide, Table 1 (RFKLRF)	Fungi
HNP-4 Defensin: peptide, source Human (VCSCRLVFCRRTELRVGNCLIGGVSFTYCCTRV; HNP-4 Defensin; listed as Homo sapiens)	Gram+ & Gram−, Fungi
Sativum defensin 1 (psd1): peptide, source Seed of Pea (KTCEHLADTYRGVCFTNASCDDHCKNKAHLISGTCHNWKCFCTQNC; Seed of pea defensin 1 (psd1); listed as Pisum sativum)	Fungi
Ranalexin: peptide, source Bull frog (FLGGLIKIVPAMICAVTKKC; Ranalexin; listed as Rana catesbeiana)	Gram+ & Gram−, Fungi
Melanotropin alpha (Alpha-MSH): peptide, source Bovine (SYSMEHFRWGKPV; Melanotropin alpha (Alpha-MSH); listed as Bos taurus)	Gram+, Fungi

Same assay, conditions: classes of organisms/cells the peptide is active against; cited from earlier work

Substance	Activity
Opistoporin 1: peptide, source African yellow leg scorpion (GKVWDWIKSTAKKLWNSEPVKELKNTALNAAKNLVAEKIGATPS; Opistoporin 1; listed as Opistophthalmus carinatus)	Gram+ & Gram−, Fungi,; also recorded: Mammalian cells
